The text below walks through data of US9815815B2, “Non-selective kinase inhibitors” (GILEAD SCIENCES, INC., priority 2013, dated 2017).

In experiment [1] the test system is rat MCT+PN model. The experiment in a line: Telemetry study of PA pressure in the rat MCT+PN model. The settings on record: for PA systolic pressure: imatinib telemetry study (study 4), 8 min 3x/day. The experiment is classed as in vivo. As to the method:
Efficacy study in the rat MCT+PN model. Pneumonectomy and implantation of a TRM53P telemetry monitor in the pulmonary artery (Telemetry Research, New Zealand and ADlnstruments, Colorado) was carried out in rats. Two weeks after MCT, PK10453 (Structure 2) was administered three times daily for 1 week. […] Sampling of PA pressure was performed 5 min before each morning dose in ambulatory animals in room air (estimated atmospheric pressure 716 mm Hg based on elevation of animal facility). […] Telemetry data was obtained for 10 min daily before each morning dose for this protocol.

The test system of experiment [2] is PDGFAA stimulated phosphorylation of ERK1 and ERK2. The experiment can be described thus: PDGFAA stimulated phosphorylation of ERK1 and ERK2 in human fetal lung fibroblasts. The settings on record: 1 uM. The experiment is classed as cell-based.
Experiment [3] has as its system PDGFBB stimulated phosphorylation of ERK1 and ERK2. The experiment can be described thus: PDGFBB stimulated phosphorylation of ERK1 and ERK2 in human fetal lung fibroblasts. It counts as cell-based. The settings on record: for PDGFBB stimulated ppERK1 formation: 1 uM.
For experiment [4], the system named is rat MCT model.
Protocol: At the end of the study RVSP pressure was measured; lung and heart fixed in formalin. For measurement of RVSP animals were sedated with isoflurane, intubated via a tracheostomy, and ventilated with a TOPOVENT pressure regulated ventilator (peak inspiratory pressure 18 cm H2O, PEEP 5 cm). After sternotomy, a Scisense high fidelity catheter inserted via the RV apex.
Histology and morphometric analysis. At the end of the study, the heart and lungs were removed from ventilated animals under general anesthesia. Heparinized saline was infused under pressure through the main pulmonary artery. […] The heart was removed, and the RV free wall, interventricular septum and LV free wall dissected and weighed. Buffered formalin (10%) was infused under pressure both through the pulmonary artery and the trachea. Morphometric analysis was performed on H&E stained formalin fixed tissue sectioned at 8 μm. The media area and lumen area of pulmonary arterioles were measured with Image J software by a technician blinded to treatment group. Measurements were made on 20 pulmonary arterioles per section. The ratio of the lumen area to the total media area was determined This ratio normalizes the variation in total pulmonary arteriole area. […] Briefly, pre-capillary arterioles were assigned grade 0 for no evidence of neointimal lesions, grade 1 for less than 50% luminal occlusion, and grade 2 for greater than 50% occlusion.
Experiment [5] relates to PDGFBB stimulated AKT phosphorylation (SER473). Particulars: 5 μM; PDGFRβ null and PDGFRα null cell lines; cited from earlier work.
Experiment [6] relates to AKT phosphorylation. The settings on record: 0.1 μM; PASMC from control and monocrotaline treated rats; cited from earlier work.
Experiment [7] has as its system PDGFBB stimulated AKT phosphorylation. The experiment in a line: In cell Western (ICW), PDGFBB stimulated AKT phosphorylation in human fetal lung fibroblasts. The experiment is classed as cell-based. Particulars: comparison in words. As to the method: In cell Western (ICW). […] HLFs were maintained in subculture at no more than 6 passages in DMEM with 5% FBS and 4 mM Glutamax at 37° C., 5% CO2. HLFs were plated and grown to 70-80% confluence in 96 well plates then serum-starved for 48 hours. […] Antibodies were detected using IRDye 680LT goat anti-mouse IgG and IRDye 800W goat a-rabbit IgG conjugated antibodies. After washing, the signal was quantified using an Odyssey Infrared Imaging System (LI-COR). Phosphoprotein signal (800 nm) was normalized to total protein signal (700 nm) acquired from each well and experimental duplicates on same plate were averaged and reported.

Turning to `Cc1ccc(NC(=O)c2ccc(CN3CCN(C)CC3)cc2)cc1Nc1nccc(-c2cccnc2)n1` [Imatinib], in experiment [1] (by inhalation), the “efficacy in the MCT+PN model, in words” value was “not effective”. Further, the PA systolic pressure in experiment [1] (day 1) worked out at 41.5±3.5 mm Hg; in experiment [1] (treatment day 9) it was 75.1±7 mm Hg. For the same compound, in experiment [2], the “decreasing PDGF AA stimulated ppERK1 and ppERK2 formation” value is given as “equally effective”. Also, in experiment [3], the “PDGFBB stimulated ppERK1 formation” value was “no effect”. The “RV end systolic pressure” value in experiment [4] (8 min inhalation 3x/day, two weeks) amounted to 31.8±1.8 mm Hg. Besides, in experiment [4] (given by inhalation), the “efficacy in the MCT model, in words” value was “equally effective”. Also, the “PDGFBB stimulated AKT phosphorylation (SER473)” value in experiment [5] is reported as “blocked”. For the same compound, the “phosphorylation of AKT at Thr308” value in experiment [6] is “no effect”.

On to `COc1cc(-c2cncc(N[C@@H](C)c3cccc(NC(=O)c4cnc(C#N)nc4)c3)n2)ccc1O` [PK10467], for which the “IC50 for inhibiting PDGFBB stimulated AKT phosphorylation, compared to imatinib” value in experiment [7] is “lower IC50 concentrations compared to imatinib”.

In the case of `C=CS(=O)(=O)NCc1ccc(C(=O)Nc2cccc([C@H](C)Nc3cncc(-c4ccc(O)c(OC)c4)n3)c2)cc1` [PK10468], the “IC50 for inhibiting PDGFBB stimulated AKT phosphorylation, compared to imatinib” value in experiment [7] is “lower IC50 concentrations compared to imatinib”.

On to `COc1cc(-c2cncc(N[C@@H](C)c3cccc(NC(=O)c4cncc(C)c4)c3)n2)ccc1C` [PK10569], for which the “IC50 for inhibiting PDGFBB stimulated AKT phosphorylation, compared to imatinib” value in experiment [7] is reported as “lower IC50 concentrations compared to imatinib”.

`COc1ccc(-c2cncc(N[C@@H](C)c3cccc(NC(=O)c4cncc(C)c4)c3)n2)cc1OC` [PK10571]: the “IC50 for inhibiting PDGFBB stimulated AKT phosphorylation, compared to imatinib” value in experiment [7] is reported as “lower IC50 concentrations compared to imatinib”. The “decreasing PDGF AA stimulated ppERK1 and ppERK2 formation” value in experiment [2] was “equally effective”. Also, the “PDGFBB stimulated ppERK1 formation” value in experiment [3] is listed as “effective”. For the same compound, the “decreasing PDGF BB stimulated ppERK1 and ppERK2, compared to imatinib” value in experiment [3] (1 uM and 10 uM) is recorded as “more effective”. The “ratio diphosphorylated ERK2 to total ERK2 (ppERK2/ERK2)” value in experiment [3] (PDGFAA or PDGFBB stimulation (10 ng/ml), 1 uM and 10 uM) is “significantly decreased”. In addition, the “ratio diphosphorylated ERK1 to total ERK1 (ppERK1/ERK1)” value in experiment [3] (PDGFAA or PDGFBB stimulation, 1 μM and 10 μM) is on record as “significantly decreased”.
